Laboratory results published in patent US6686390B2, “Compounds having antiinflamatory activity: process for their preparation and pharmaceutical compositions containing them” (Dr. Reddy's Laboratories Limited, priority 2000, dated 2004).

Legend:
[1] = target: T1, cox-1 enzyme (Ovis aries, UniProt P05979); experiment: Spectrophotometric assay of cox-1 (TMPD oxidation); type: biochemical; settings: Conc. 100 μM; microsomal fraction of ram seminal vesicles; read-out: Percent inhibition COX-1
T1 construct: Microsomal fraction of ram seminal vesicles used as a source of cox-1 enzyme; from tissue; host or cells: ram seminal vesicles (microsomal fraction)
T1 sequence (P05979 25-600): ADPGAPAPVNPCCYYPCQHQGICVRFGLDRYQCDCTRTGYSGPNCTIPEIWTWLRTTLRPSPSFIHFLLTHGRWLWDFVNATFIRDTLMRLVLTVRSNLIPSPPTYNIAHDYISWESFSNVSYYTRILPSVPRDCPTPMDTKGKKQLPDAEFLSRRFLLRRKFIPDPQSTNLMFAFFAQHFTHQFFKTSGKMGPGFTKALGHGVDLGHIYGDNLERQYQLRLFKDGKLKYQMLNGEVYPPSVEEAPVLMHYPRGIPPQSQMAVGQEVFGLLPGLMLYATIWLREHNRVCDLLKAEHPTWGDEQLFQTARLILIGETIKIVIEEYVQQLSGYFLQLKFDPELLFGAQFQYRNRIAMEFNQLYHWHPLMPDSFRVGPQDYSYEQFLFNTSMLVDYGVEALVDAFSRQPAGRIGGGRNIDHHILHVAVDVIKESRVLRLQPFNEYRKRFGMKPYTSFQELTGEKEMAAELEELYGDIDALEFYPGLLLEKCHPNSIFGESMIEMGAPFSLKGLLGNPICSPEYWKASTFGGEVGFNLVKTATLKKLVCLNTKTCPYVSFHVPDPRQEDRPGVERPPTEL
Protocol: (§1) 1. Spectrophotometric assay of cox-1 and cox-2:
(§2) Microsomal fraction of ram seminal vesicles used as a source of cox-1 enzyme (Hemler et al., 1976) and microsomes from sf-9 cells infected with baculo virus containing human cox-2 c-DNA used as a source of cox-2 enzyme (Wanda et al., 1994). Enzyme activity was measured using a chromogenic assay based on oxidation of N,N,N′,N′-tetramethyl-p-phenylenediamine (TMPD) during the reduction of PGG2 to PGH2 as per described by Copeland et al., 1994 with following modifications. The assay mixture (1000 μl) contains […] pH 8.0, 3 μM EDTA, 15 μM hematin, 150 units enzyme and 8% DMSO. The mixture was pre-incubated at 25° C. for 15 minutes before initiation of enzyme reaction in presence of compound/vehicle. The reaction was initiated by the addition of 100 μM arachidonic acid and 120 μM TMPD. The enzyme activity is measured by estimation of the initial velocity of TMPD oxidation over the first 25 seconds of the reaction followed by increase in absorbency at […]. The IC50 values were calculated using non-linear regression analysis of percent inhibitions.

[2] = target: T2, COX-1 (Homo sapiens, UniProt P23219); experiment: Human whole blood assay, COX-1 inhibition; type: cell-based
T2 construct: Fresh heparinised human whole blood; endogenous in cells; host or cells: human whole blood
Protocol: (§3) 2) Human Whole Blood Assay:
Fresh heparinised human whole blood was incubated with lipopolysaccharide (LPS) from E. coli at 100 μg/ml and with 2.5 μl vehicle (D)MSO) or test compound for 24 hours at 37° C. PGE2 levels in the plasma were measured using EIA kit (Cayman chemicals, USA) after deproteinization.

[3] = target: T3, COX-2 (Homo sapiens, UniProt P35354); experiment: Human whole blood assay, COX-2 inhibition; type: cell-based; parameters: endogenous in cells; host or cells: human whole blood; settings: read-out: IC50 COX-II
T3 sequence (P35354 18-604): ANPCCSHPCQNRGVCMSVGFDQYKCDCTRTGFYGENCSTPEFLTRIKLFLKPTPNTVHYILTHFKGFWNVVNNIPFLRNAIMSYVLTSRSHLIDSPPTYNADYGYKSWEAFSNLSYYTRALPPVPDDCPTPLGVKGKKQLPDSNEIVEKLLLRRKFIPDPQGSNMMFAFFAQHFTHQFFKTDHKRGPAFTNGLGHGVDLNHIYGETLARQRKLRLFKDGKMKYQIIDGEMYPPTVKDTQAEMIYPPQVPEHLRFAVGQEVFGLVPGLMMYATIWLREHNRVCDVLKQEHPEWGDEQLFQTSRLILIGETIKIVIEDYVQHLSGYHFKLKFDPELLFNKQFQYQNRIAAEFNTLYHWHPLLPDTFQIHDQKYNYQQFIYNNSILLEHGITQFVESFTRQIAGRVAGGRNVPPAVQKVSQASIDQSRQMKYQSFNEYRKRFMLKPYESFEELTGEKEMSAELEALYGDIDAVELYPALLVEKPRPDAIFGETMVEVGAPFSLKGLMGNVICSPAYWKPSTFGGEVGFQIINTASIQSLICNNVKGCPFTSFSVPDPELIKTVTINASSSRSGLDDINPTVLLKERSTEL
Protocol: as §3
An aliquot of fresh blood was mixed either with DMSO or test compounds and was allowed to clot for 1 hour at 37° C. TXB2 levels in the serum were measured using EIA kit (Cayman chemicals, USA) after deproteinization.

[4] = target: T3, COX-2; experiment: Spectrophotometric assay of cox-2 (TMPD oxidation); type: biochemical; parameters: made in house; host or cells: sf-9 insect cells, baculovirus; settings: Conc. 100 μM; microsomes from sf-9 cells with human cox-2; read-out: Percent inhibition COX-2
Protocol: as §1, §2

T2 sequence (P23219 24-599): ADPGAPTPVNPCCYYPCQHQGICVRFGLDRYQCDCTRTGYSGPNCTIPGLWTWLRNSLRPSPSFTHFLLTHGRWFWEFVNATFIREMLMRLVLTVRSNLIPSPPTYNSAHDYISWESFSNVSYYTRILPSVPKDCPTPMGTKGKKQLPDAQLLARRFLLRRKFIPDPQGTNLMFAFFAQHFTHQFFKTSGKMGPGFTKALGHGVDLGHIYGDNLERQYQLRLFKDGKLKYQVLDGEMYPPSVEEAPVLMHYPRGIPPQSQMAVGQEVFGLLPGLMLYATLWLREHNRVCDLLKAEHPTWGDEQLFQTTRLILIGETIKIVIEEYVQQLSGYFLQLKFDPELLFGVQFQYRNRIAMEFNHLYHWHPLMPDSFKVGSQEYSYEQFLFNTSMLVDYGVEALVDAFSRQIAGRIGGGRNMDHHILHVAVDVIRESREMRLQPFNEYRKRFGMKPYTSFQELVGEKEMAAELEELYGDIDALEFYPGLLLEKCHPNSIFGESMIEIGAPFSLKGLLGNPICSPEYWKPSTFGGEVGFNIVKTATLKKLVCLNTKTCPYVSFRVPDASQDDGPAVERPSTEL

Row | SMILES | melting point [°C] | also measured
1 | CS(=O)(=O)c1ccc(C2=C(c3ccc(F)cc3)C(=O)OC2)c(F)c1 [Example 1, 3-(4-Fluorophenyl)-4-(2-fluoro-4-methylsulfonylphenyl)-2,5-dihydro-2-furanone] | 160 to 162 | inhibition at 100 µM [1]: 33%; IC50 [2]: 195 ± 27.5 µM; IC50 [3]: 2.72 ± 0.425 µM; inhibition at 100 µM [4]: 100%
2 | CSc1ccc(C2=C(c3ccccc3)C(=O)OC2)cc1C [Example 5, 4-(3-Methyl-4-methylsulfanylphenyl)-3-phenyl-2,5-dihydro-2-furanone] | 150 to 153 | 
3 | CSc1ccc(C2=C(c3ccc(C)cc3)C(=O)OC2)cc1C [Example 8, 4-(3-Methyl-4-methylsulfanylphenyl)-3-(4-methylphenyl)-2,5-dihydro-2-furanone] | 144 to 147 | 
4 | CSc1ccc(C2=C(c3ccc(C)cc3)C(=O)OC2)cc1Cl [Example 26, 4-(4-Methylsulfanyl-3-chlorophenyl)-3-(4-methylphenyl)-2,5-dihydro-2-furanone] | 147 to 149 | 
5 | CSc1ccc(C2=C(c3ccccc3)C(=O)OC2)c(F)c1 [Example 18, 4-(2-Fluoro-4-methylsulfanylphenyl)-3-phenyl-2,5-dihydro-2-furanone] | 145 to 147 | 
6 | CSc1ccc(C2=C(c3ccc(SC)c(F)c3)COC2=O)cc1 [Example 24, 4-(4-Methylsulfanyl-3-fluorophenyl)-3-(4-methylsulfanylphenyl)-2,5-dihydro-2-furanone] | 161 to 162 | 
7 | CSc1ccc(C2=C(c3ccc(F)c(F)c3)C(=O)OC2)cc1Cl [Example 22, 4-(4-Methylsulfanyl-3-chlorophenyl)-3-(3,4-difluorophenyl)-2,5-dihydro-2-furanone] | 151 to 152 | 
8 | CSc1ccc(C2=C(c3ccccc3)C(=O)OC2)cc1Cl [Example 20, 4-(4-Methylsulfanyl-3-chlorophenyl)-3-phenyl-2,5-dihydro-2-furanone] | 151 to 152 | 
9 | CSc1ccc(C2=C(c3ccc(F)cc3)C(=O)OC2)cc1C [Example 7, 4-(3-Methyl-4-methylsulfanylphenyl)-3-(4-fluorophenyl)-2,5-dihydro-2-furanone] | 126 to 130 | 
10 | CSc1ccc(C2=C(c3ccc(CC(C)C)cc3)C(=O)OC2)cc1C [Example 11, 4-(3-Methyl-4-methylsulfanylphenyl)-3-(4-isobutylphenyl)-2,5-dihydro-2-furanone] | 146 to 149 | 
11 | CSc1ccc(C2=C(c3ccc(F)c(F)c3)C(=O)OC2)cc1C [Example 3, 4-(3-Methyl-4-methylsulfanylphenyl)-3-(3,4-difluorophenyl)-2,5-dihydro-2-furanone] | 150 to 153 | 
12 | CSc1ccc(C2=C(c3ccc(C(F)(F)F)cc3)C(=O)OC2)cc1C [Example 16, 4-(3-Methyl-4-methylsulfanylphenyl)-3-(4-trifluoromethylphenyl)-2,5-dihydro-2-furanone] | 140 to 143 | 
13 | CSc1ccc(C2=C(c3ccccc3)C(=O)OC2)cc1F [Example 23, 4-(4-Methylsulfanyl-3-fluorophenyl)-3-phenyl-2,5-dihydro-2-furanone] | 145 to 146 | 
14 | COc1ccc(C2=C(c3ccc(SC)c(C)c3)COC2=O)cc1 [Example 12, 4-(3-Methyl-4-methylsulfanylphenyl)-3-(4-methoxyphenyl)-2,5-dihydro-2-furanone] | 147 to 150 | 
15 | COc1cc(C2=C(c3ccccc3)C(=O)OC2)ccc1SC [Example 14, 3-Phenyl-4-(3-methoxy-4-methylsulfanylphenyl)-2,5-dihydro-2-furanone] | 142 to 144 | 
16 | CSc1ccc(C2=C(c3ccc(SC)c(Cl)c3)COC2=O)cc1 [Example 21, 3-(4-Methylsulfanylphenyl)-4-(3-chloro-4-methylsulfanylphenyl)-2,5-dihydro-2-furanone] | 157 to 158 | 

Second part, led by results:

Row | melting point [°C] | SMILES | also measured
17 | 127 to 130 | CC1(C)OC(=O)C(c2ccc(F)cc2)=C1c1ccc(S(C)(=O)=O)c(CN2CCOCC2)c1 [Example 67, 3-(4-Fluorophenyl)-5,5-dimethyl-4-(4-methylsulfonyl-3-morpholinomethylphenyl)-2,5-dihydro-2-furanone] | 
18 | 145 to 148 | CS(=O)(=O)c1ccc(C2=C(c3cccc4ccccc34)C(=O)OC2)c(F)c1 [Example 54, 4-(2-Fluoro-4-methylsulfonylphenyl)-3-(1-naphthyl)-2,5-dihydro-2-furanone] | 
19 | 159 to 160 | CSc1ccc(C2=C(c3ccc(C)cc3)C(=O)OC2)cc1F [Example 27, 4-(4-Methylsulfanyl-3-fluorophenyl)-3-(4-methylphenyl)-2,5-dihydro-2-furanone] | 
20 | 125 to 127 | CS(=O)(=O)c1ccc(C2=C(c3cc(F)cc(F)c3)C(=O)OC2)c(F)c1 [Example 70, 3-(3,5-Difluorophenyl)-4-(2-fluoro-4-methylsulfonylphenyl)-2,5-dihydro-2-furanone] | inhibition at 100 µM [1]: 49%; IC50 [2]: 115 µM; IC50 [3]: 0.913 µM; inhibition at 100 µM [4]: 92%
21 | 118 | CSc1ccc(C2=C(c3ccc(F)cc3)C(=O)OC2)c(F)c1 [Example 42, 4-(2-Fluoro-4-methylsulfanylphenyl)-3-(4-fluorophenyl)-2,5-dihydro-2-furanone] | 
22 | 198 to 200 | CS(=O)(=O)c1ccc(C2=C(c3ccccc3)C(=O)N(c3ccc(F)cc3)C2=O)c(F)c1 [Example 98, 3-(2-Fluoro-4-methylsulfonylphenyl)-1-(4-fluorophenyl)-4-phenyl-2,5-dihydro-1H-2,5-azoledione] | 
23 | 122 to 124 | COc1ccc(C2=C(c3ccc(SC)c(F)c3)COC2=O)cc1 [Example 38, 4-(4-Methylsulfanyl-3-fluorophenyl)-3-(4-methoxyphenyl)-2,5-dihydro-2-furanone] | 
24 | 164 to 166 | COOSc1ccc(C2=C(c3ccc(C)cc3)C(=O)OC2)cc1Cl [Example 29] | 
25 | 148 to 150 | CCC1OC(=O)C(c2ccc(SC)c(C)c2)=C1c1ccc(S(C)(=O)=O)c(F)c1 (stereo not drawn) [Example 71, 5-Ethyl-4-(3-fluoro-4-methylsulfonylphenyl)-3-(3-methyl-4-methylsulfanylphenyl)-2,5-dihydro-2-furanone] | inhibition at 100 µM [1]: 3%; inhibition at 100 µM [4]: 99%
26 | 92 to 94 | CSc1ccc(C2=C(c3ccc(CC(C)C)cc3)C(=O)OC2)c(F)c1 [Example 35, 4-(2-Fluoro-4-methylsulfanylphenyl)-3-(4-isobutylphenyl)-2,5-dihydro-2-furanone] | 
